Data on two molecules can be found in patent publication US20050043412A1, “Remedies for glaucoma comprising bunazosin and prostaglandins” (SANTEN PHARMACEUTICAL CO LTD, priority 2002, published 2005).

For this assay, the system named is intraocular pressure of cynomolgus monkeys. The experiment in a line: Effect on intraocular pressure in normal cynomolgus monkeys after topical instillation. Type of assay: in vivo, cynomolgus monkeys (Macaca fascicularis). The note with it: normal cynomolgus monkey, single eye, 20 μl instillation (Detantol 0.01% bunazosin hydrochloride; Xalatan 0.005% latanoprost; combination: Xalatan 5 minutes after Detantol); IOP measured 2, 4 and 6 hours after administration. As for the experimental part: So as to study the utility of bunazosin in combination with prostaglandin, bunazosin and prostaglandin were administered in combination to cynomolgus monkeys (Macaca fascicularis), examining the effect on intraocular pressure. Latanoprost was used as prostaglandin.
For bunazosin administration, Detantol (trade mark) ophthalmic solution, which contains bunazosin hydrochloride at 0.01%, was used. For latanoprost administration, Xalatan (trade mark) ophthalmic solution, which contains latanoprost at 0.005%, was used.
Cynomolgus monkeys were divided into four groups, a group to be dosed with a vehicle (vehicle group), a group to be dosed with bunazosin (bunazosin group), a group to be dosed with latanoprost (latanoprost group) and a group to be dosed with bunazosin and latanoprost [(bunazosin+latanoprost) group].
• 1. For topical anesthesia, a drop of 0.4% oxybuprocain hydrochloride ophthalmic solution was instilled into a single eye of each normal cynomolgus monkey. Then, intraocular pressure was measured before drug administration. • 2. […] 2, 4 and 6 hours after the administration of these test compound solutions, one drop of 0.4% oxybuprocain hydrochloride eye drops was instilled for topical anesthesia, and the intraocular pressure was measured. The maximum reduction of intraocular pressure in each group was determined by the following formula. […]

Structures can show the parent of a compound that is named as a salt.

Take `CC(C)OC(=O)CCC/C=C\C[C@@H]1[C@@H](CC[C@@H](O)CCc2ccccc2)[C@H](O)C[C@@H]1O` [Latanoprost]: the “Maximum reduction of intraocular pressure” value is 2.6 mmHg. As to `CCCC(=O)N1CCCN(c2nc(N)c3cc(OC)c(OC)cc3n2)CC1` [Bunazosin, Bunazosin hydrochloride], the “Maximum reduction of intraocular pressure” value is 1.9 mmHg.
